The structures appear in SMILES notation. Values joined by “and” are separate entries in the source; they are usually repeats but may differ in a detail not shown here. Equal values may be shown once.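 Protocol summary: plate cells (96-well), add compound at 5 concentrations, incubate 48 h, interpolate endpoints linearly. At the GI50, growth is halved. TGI is the concentration that stops growth completely.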 A value given as a limit tells only on which side of the number the result lay.

This note sets out measurements from PubChem BioAssay (NCI).

Test systems include A498 renal; HCT-15 colon; CAKI-1 renal; SK-MEL-2 melanoma; IGROV1 ovarian; CCRF-CEM leukemia; NCI-H226 lung; T-47D breast; SNB-75 CNS; NCI-H23 lung; SW-620 colon; HCC-2998 colon; LOX IMVI melanoma.
What all share (test): inhibition of tumour cell growth, NCI panel, 48 h

Regarding `COc1cc(CC(C)N[C@@H](C)c2ccccc2)cc(OC)c1` (some centres not stated), the GI50 in the test with A498 renal is 7.9 µM and 41.8 µM; in the test on IGROV1 ovarian it was 10.6 µM and > 100 µM; in the test with NCI-H226 lung, 15.1 µM and > 100 µM; with SNB-75 CNS, 2.9 µM and 24.7 µM; with NCI-H23 lung, 11.6 µM and > 100 µM; in the test on SW-620 colon, 11.7 µM and > 100 µM. The TGI in the test on A498 renal is 21 µM and > 100 µM; in the test on HCT-15 colon it was 16.1 µM and > 100 µM; in the test on CAKI-1 renal, more than 100 µM; with SK-MEL-2 melanoma it was more than 100 µM; in the test with IGROV1 ovarian, 24.3 µM and > 100 µM; with CCRF-CEM leukemia, 24 µM and > 100 µM. The TGI was 38.2 µM and > 100 µM in the test on NCI-H226 lung; 18.3 µM and > 100 µM in the test on T-47D breast; 12.9 µM and > 100 µM with SNB-75 CNS; 27.3 µM and > 100 µM in the test on NCI-H23 lung; 26.3 µM and > 100 µM in the test with SW-620 colon.
Turning to `c1ccc(N=C2C(=Nc3ccccc3)N(C3CCCCC3)C(=NC3CCCCC3)N2c2ccccc2)cc1`, the TGI in the test on A498 renal, with HCT-15 colon, in the test with SK-MEL-2 melanoma, in the test on HCC-2998 colon, in the test with IGROV1 ovarian and with NCI-H226 lung was more than 100 µM each time. Also, the TGI in the test with T-47D breast, with SNB-75 CNS, with NCI-H23 lung and in the test on SW-620 colon was more than 100 µM throughout.
Consider `CCCC(=O)n1[nH]c(=O)n(C(C)(C)C)c1=O`, for which the TGI in the test with HCT-15 colon, with CAKI-1 renal, in the test with SK-MEL-2 melanoma, with HCC-2998 colon, in the test with IGROV1 ovarian and in the test with CCRF-CEM leukemia was more than 100 µM in each case. Further, the TGI in the test on NCI-H226 lung, in the test on T-47D breast, with SNB-75 CNS, in the test with NCI-H23 lung, with LOX IMVI melanoma and in the test on SW-620 colon was more than 100 µM in each case.
Regarding `Cc1ccc(N(C)S(=O)(=O)c2ccccc2)cc1`, the TGI in the test on HCT-15 colon, in the test with CAKI-1 renal, in the test on SK-MEL-2 melanoma, with HCC-2998 colon, in the test on IGROV1 ovarian and in the test on CCRF-CEM leukemia was more than 100 µM in each case. Besides, the TGI in the test with NCI-H226 lung, in the test with T-47D breast, in the test on SNB-75 CNS, with NCI-H23 lung, in the test on LOX IMVI melanoma and with SW-620 colon was more than 100 µM each time.
Regarding `O=[N+]([O-])c1ccc(OP(=O)(O)OCC2OC(CP(=O)(O)O)C(O)C2O)cc1` (configuration not stated), the TGI with A498 renal, in the test with HCT-15 colon, in the test on CAKI-1 renal, in the test on SK-MEL-2 melanoma, in the test on HCC-2998 colon and with IGROV1 ovarian was more than 100 µM in each case. Besides, the TGI in the test with CCRF-CEM leukemia, in the test with T-47D breast, with NCI-H23 lung, with LOX IMVI melanoma and with SW-620 colon was more than 100 µM in each case.
With `CC(=O)OCC1OC(N2C(=O)CC(N)=Nc3ccccc32)C(OC(C)=O)C(OC(C)=O)C1OC(C)=O` (configuration not stated), the TGI in the test on A498 renal, in the test with HCT-15 colon, with CAKI-1 renal, in the test on SK-MEL-2 melanoma, in the test on HCC-2998 colon and in the test with IGROV1 ovarian was more than 100 µM each time. The TGI with CCRF-CEM leukemia is more than 100 µM; in the test on T-47D breast, 82.2 µM; in the test with SNB-75 CNS, more than 100 µM; in the test with NCI-H23 lung, more than 100 µM; with LOX IMVI melanoma it was more than 100 µM; with SW-620 colon, more than 100 µM.
For `Clc1cc2nnn(C3CCCCO3)c2cc1Cl` (configuration not stated), the TGI in the test on A498 renal, in the test on HCT-15 colon, with CAKI-1 renal, in the test with SK-MEL-2 melanoma, in the test with HCC-2998 colon and in the test with IGROV1 ovarian was more than 100 µM each time. Moreover, the TGI in the test with CCRF-CEM leukemia, in the test on NCI-H226 lung, with T-47D breast, with SNB-75 CNS and with NCI-H23 lung was more than 100 µM each time.
For `Nc1nc(Cl)cc(NCC2(CO)CC(c3ccccc3)C2)n1` (configuration not stated), the TGI with A498 renal, with HCT-15 colon, in the test with CAKI-1 renal, in the test on SK-MEL-2 melanoma, with IGROV1 ovarian and in the test on CCRF-CEM leukemia was more than 100 µM in each case. For the same molecule, the TGI in the test with NCI-H226 lung, in the test on T-47D breast, in the test on SNB-75 CNS, in the test on NCI-H23 lung, in the test on LOX IMVI melanoma and in the test with SW-620 colon was more than 100 µM in each case.
As for `O=C(O)c1cccc(S(=O)(=O)NN2C(=O)CSC2c2ccccc2Cl)c1` (configuration not stated), the TGI in the test on HCT-15 colon, in the test on CAKI-1 renal, with SK-MEL-2 melanoma, with HCC-2998 colon, with IGROV1 ovarian and in the test with CCRF-CEM leukemia was more than 100 µM throughout. Besides, the TGI in the test with NCI-H226 lung, in the test with T-47D breast, with SNB-75 CNS, in the test on NCI-H23 lung, in the test on LOX IMVI melanoma and with SW-620 colon was more than 100 µM in each case.
`CC1C2CC(CC2O)C1(C)C` (configuration not stated): the TGI in the test with A498 renal, in the test with CAKI-1 renal, in the test on IGROV1 ovarian, in the test with CCRF-CEM leukemia, with NCI-H226 lung and in the test with T-47D breast was more than 100 µM throughout. Further, the TGI with SNB-75 CNS, with NCI-H23 lung and with SW-620 colon was more than 100 µM each time.
As for `O=C(Nc1sccc1S(=O)(=O)c1ccc(Cl)cc1)c1ccc(Cl)cc1Cl`, the TGI in the test with A498 renal, in the test with HCT-15 colon, in the test with CAKI-1 renal, in the test on SK-MEL-2 melanoma, with IGROV1 ovarian and with CCRF-CEM leukemia was more than 100 µM in each case. Besides, the TGI in the test with NCI-H226 lung, with T-47D breast, in the test on SNB-75 CNS, in the test with NCI-H23 lung, with LOX IMVI melanoma and in the test on SW-620 colon was more than 100 µM throughout.
As to `CNC(=O)C1CCC(=O)N1CN(C(C)=O)c1ccccc1` (configuration not stated), the TGI in the test on A498 renal is more than 100 µM; with HCT-15 colon it was more than 100 µM; with CAKI-1 renal, more than 100 µM; in the test on SK-MEL-2 melanoma, more than 100 µM; in the test with IGROV1 ovarian, more than 100 µM; in the test with CCRF-CEM leukemia it was 0.426 µM. Moreover, the TGI in the test on NCI-H226 lung, in the test on T-47D breast, in the test on SNB-75 CNS, in the test with NCI-H23 lung, with LOX IMVI melanoma and with SW-620 colon was more than 100 µM in each case.
